The results in this text go back to EP0505817A1, “Use of phosphatidylserine and its derivatives for the manufacture of a medicament for the treatment of degenerative pathologies also associated with immune disfunctions” (FIDIA S.p.A., priority 1991, dated 1992).

For the assay, the system named is TNF-α. The assay can be described thus: Serum TNF induced by LPS in the mouse after phospholipid pretreatment (L-929 cytotoxicity bioassay). Format: in vivo. The following applies: S. Thyphi LPS 5 µ i.p., blood 60' later; for TNF-α title treated: average ± SEM. As to the method: Utilized are: • 170 Charles River CD-1 albino male mice weighing about 25-30 g • 6 New Zealand male rabbits weighing about 2-2.5 kg.
The animals after 90' from the last phospholipidic treatment or with THIS (as indicated later-on), are treated by parenteral route with S. Thyphi or E. Coli (Sigma) lipopolysaccharide.
Particularly: • mouse: injection of 5 µg LPS i.p. (1st experiment) or 25 µg LPS i.v. (2nd experiment) the blood sample is taken after 60 min. • rabbit: injection of 1 µg LPS i.v.. The blood sample is taken after 90 minutes.
The following products are tested: • BC-PS (phosphatidylserine in the commercially available form consisting of a composition comprising: phosphatidylserine extracted from bovine brain as described in example 1) • PS (phosphatidylserine) • PC (phosphatidylcholine) • PG (phosphatidylglycerol) • DPS (lysophosphatidylserine) • PE (phosphatidylethanolamine) • […] (1-myristoyl-2-deoxi-3-glycerophospho-L-serine) The phospholipids purity and their composition are determined by thin layer bidimensional chromatography (Punzi, L. et al.: Phospholipids in inflammatory synovial effusions. Rheumatol. Int. 6, 7-11, 1986).
Phospholipids are then solubilized in 50 mM TRIS-HCl pH 7.8 and suitably sonicated.
The phospholipidic dispersion is then injected in animals under the following conditions: • mouse: BC-PS 15-30 mg/kg/die i.p. for 3 days or 30 mg/kg/die i.v. for 3 days DPS, PSS₄ 20 mg/kg/die i.p. for 3 days PS, PC, PG, PE 25 mg/kg/die i.p. for 3 days • rabbit: 30 mg/kg/die i.v. for 5 days.
LPS is then administered following the above mentioned conditions with successive blood sample for the seric TNF dosage.
The level of seric TNF was evaluated by biological dosage, using the fibroblasts line L-929 of murine sarcoma (American type culture collection). In fact TNF is cytotoxic against said line (Meager A. et al.: Assays for tumor necrosis factor and related cytokines. J. Immunol. Methods 116: 1-17, 1989).
Shortly, 5 x 10⁴ cells are cultured in 96 well plates with 0.1 ml RPMI 1640 medium containing 10 % (v/v) of bovine serum inactivated at 56 °C for 30'.
After 18 hours the medium is replaced with 0.1 ml of fresh medium, containing serial dilutions of serum samples to be tested in the presence of actinomycin D (2 µg/ml) and lithium chloride 20 mM in order to increase the method sensitivity, namely the TNF cytotoxicity (Beyaert R. et al.: Lithium chloride potentiates tumor necrosis factor-mediated cytotoxicity in vitro and in vivo. Proc. Natl. Acad. Sci. 86: 9494-9498, 1989).
An […] (4000 U/ml of TNF-α(Genzyme) is added to 3 wells in every plate and said wells are utilized as positive control in order to check the sensitivity level of the cellular line, namely to verify the specificity dosage.
As negative controls, wells containing untreated mice serum, are used.
After 18 hours the medium is sucked and replaced with 0.1 ml of a saline solution containing 30 mM of glucose and 0.45 mg/ml of MTT tetrazolium (3-[4,5-dimethylthiazol-2-yl]-2,5 diphenyl-tetrazolium bromide. Then, after 4 hours, 0.1 ml of an acid solution of isopropanol (0.08 N HCl in isopropanol) is added and the absorbance is read by using a plate spectrophotometer scanner provided with a filter specific for 570 nm absorbance.
TNF cytotoxicity is calculated, by applying the formula: [formula] TNF-α title in serum samples is expressed in unit/ml and corresponds to the inverse of the dilution bringing to 50 % of cellular survival (Meager A. et al.: Assays for tumor necrosis factor and related cytokines. J. Immunol. Methods 116: 1-17, 1989).
In order to validate the test an anti-TNF-α murine antibody (Genzyme) is used which, as foreseen (see the results) blocks completely the cytotoxicity of murine serum but not the one of rabbit serum.

As for “phosphatidylcholine [PC, reference compound]”, for the setting “dose 25 mg/kg i.p. for 3 days”, the “Inhibition (%)” value is reported as 16% and the TNF-α title treated is listed as 176±53 (12) U/serum ml.
As to “phosphatidylglycerol [PG, reference compound]”, where the note is “dose 25 mg/kg i.p. for 3 days”, the “Inhibition (%)” value is “inactive” and the TNF-α title treated was 238±37 (18) U/serum ml.
Turning to phosphatidylserine [PS], where the note is “dose 25 mg/kg i.p. for 3 days”, the “Inhibition (%)” value came out at 68% and the TNF-α title treated is recorded as 81±21 (9) U/serum ml.
Regarding phosphatidylethanolamine [PE], where the note is “dose 25 mg/kg i.p. for 3 days”, the “Inhibition (%)” value was 56% and the TNF-α title treated is reported as 137±46 (6) U/serum ml.
Take `CCCCCCCCCCCCCC(=O)OCCCOP(=O)(O)OC[C@H](N)C(=O)O` [PSS₄, 1-myristoyl-2-deoxi-3-glycerophospho-L-serine]: where the note is “dose 20 mg/kg i.p. for 3 days”, the TNF-α title treated is recorded as 50±16 (5) U/serum ml.
Turning to lysophosphatidylserine [DPS], where the note is “dose 20 mg/kg i.p. for 3 days”, the “Inhibition (%)” value is reported as 80% and the TNF-α title treated was 45±11 (5) U/serum ml.
